Results: patent publication US10376523B2, “Aqueous composition containing ripasudil, or a salt, or a solvate thereof” (KOWA COMPANY, LTD., priority 2014, dated 2019)

How the values were obtained:
[1] = system: Pseudomonas aeruginosa NBRC 13275 strain; assay: Test Example 1: growth inhibitory activity on Pseudomonas aeruginosa (membrane filter method, colony count); assay type: cell-based; conditions: 2 g ripasudil monohydrochloride dihydrate in 270 mL phosphate buffer pH 7.2
Description: (§1) In order to examine ripasudil for the presence or absence of growth inhibitory activity on microorganisms (bacteria and fungi), the following tests were performed using Pseudomonas aeruginosa as a bacterium and Candida albicans as a fungus. Pseudomonas aeruginosa NBRC 13275 strain was seeded on the soybean-casein digest medium (Merck Corporation) and cultured at 30 to 35° C. for 20 to 22 hours. The culture was then diluted with peptone saline buffer (pH 7.0) to 1,000 CFU/mL or less to obtain a test bacterial suspension. Two grams of ripasudil monohydrochloride dihydrate were dissolved in 270 mL of phosphate buffer (pH 7.2) to obtain a dilute sample solution. A sample was obtained by mixing 0.5 mL of the test bacterial suspension with 50 mL of the dilute sample solution (note that a mixture of 0.5 mL of the test bacterial suspension and 50 mL of phosphate buffer (pH 7.2) was used as a control sample). […] After the culture, the number of colonies formed was counted (note that the test was performed twice, and an average value was determined). From the determined number of colonies, a growth inhibitory ratio (%) was calculated using the following equation: Growth inhibitory ratio (%)=|(the number of colonies for the control sample−the number of colonies for the sample)|/the number of colonies for the control sample×100

[2] = system: Candida albicans NERC 1594 strain; assay: Test Example 1: growth inhibitory activity on Candida albicans (membrane filter method, colony count); assay type: cell-based; conditions: 2 g ripasudil monohydrochloride dihydrate in 270 mL phosphate buffer pH 7.2
Description: as §1, with “fungus.” for “fungus. Pseudomonas aeruginosa NBRC 13275 strain was seeded on the soybean-casein digest medium (Merck Corporation) and cultured at 30 to 35° C. for 20 to 22 hours. The culture was then diluted with peptone saline buffer (pH 7.0) to 1,000 CFU/mL or less to obtain a test bacterial suspension.”, “sample×100 Candida albicans NERC 1594 strain was seeded on the Sabouraud-dextrose liquid medium (Merck Corporation) and cultured at 20 to 25° C. for 44 to 46 hours. […] After the culture, the number of colonies formed was counted (note that the test was performed twice, and an average value was determined). A growth inhibitory ratio (%) was also calculated.” for “sample×100”

[3] = at a concentration of 0.001%; cited from earlier work

Compound: C[C@H]1CNCCCN1S(=O)(=O)c1cccc2cncc(F)c12 [ripasudil, 4-fluoro-5-[[(2S)-2-methyl-1,4-diazepan-1-yl]sulfonyl]isoquinoline]
- Number of Formed Colonies, Sample ([1]; contact 30 minutes or longer, average of two tests, control sample 47 colonies): 0
- Growth Inhibitory Ratio ([1]; versus control sample): 100%
- Number of Formed Colonies, Sample ([2]; contact 30 minutes or longer, average of two tests, control sample 37 colonies): 23
- Growth Inhibitory Ratio ([2]; versus control sample): 37.8%

Compound: benzalkonium chloride
- antimicrobial activity [3]: sufficient antimicrobial activity is not demonstrated
